Source: ChEMBL document CHEMBL1144770, “Synthesis, SAR and in vitro evaluation of new cyclic Arg-Gly-Asp pseudopentapeptides containing a s-cis peptide bond as integrin alphavbeta3 and alphavbeta5 ligands” (Bioorg Med Chem, 2008)

Experiments:
Integrin alpha-V/beta-5 = Integrin alpha-V/beta-5 (Homo sapiens, UniProt P06756+P18084); experiment: Displacement of [125I]Echistatin from human placental integrin alpha-V-beta-5 receptor
Integrin alpha-V/beta-3 = Integrin alpha-V/beta-3 (Homo sapiens, UniProt P05106+P06756); experiment: Displacement of [125I]echistatin from human placental integrin alphaVbeta3 receptor
Chain of Integrin alpha-V/beta-3 (P05106 27-788 limits assumed): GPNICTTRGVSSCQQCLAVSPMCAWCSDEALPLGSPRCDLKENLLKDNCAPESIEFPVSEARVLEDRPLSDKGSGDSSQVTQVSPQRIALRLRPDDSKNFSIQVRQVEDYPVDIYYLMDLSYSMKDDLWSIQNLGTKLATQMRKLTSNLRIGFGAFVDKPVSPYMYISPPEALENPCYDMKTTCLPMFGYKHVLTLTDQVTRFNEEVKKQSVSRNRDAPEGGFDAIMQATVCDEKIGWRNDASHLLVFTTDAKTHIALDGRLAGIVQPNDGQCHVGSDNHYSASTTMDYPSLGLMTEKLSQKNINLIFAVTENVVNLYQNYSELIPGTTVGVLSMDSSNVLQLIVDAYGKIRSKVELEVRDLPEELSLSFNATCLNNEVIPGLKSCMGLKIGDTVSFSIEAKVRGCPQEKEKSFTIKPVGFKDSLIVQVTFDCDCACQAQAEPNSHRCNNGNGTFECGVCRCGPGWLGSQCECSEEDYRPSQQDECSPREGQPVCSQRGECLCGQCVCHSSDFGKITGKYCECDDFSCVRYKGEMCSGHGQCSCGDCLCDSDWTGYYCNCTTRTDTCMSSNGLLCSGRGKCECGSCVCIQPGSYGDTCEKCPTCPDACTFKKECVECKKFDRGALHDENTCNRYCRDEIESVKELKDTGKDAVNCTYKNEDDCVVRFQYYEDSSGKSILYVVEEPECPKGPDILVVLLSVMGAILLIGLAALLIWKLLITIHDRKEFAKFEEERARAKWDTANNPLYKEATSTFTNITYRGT
Chain of Integrin alpha-V/beta-3 (P06756 31-889 limits assumed): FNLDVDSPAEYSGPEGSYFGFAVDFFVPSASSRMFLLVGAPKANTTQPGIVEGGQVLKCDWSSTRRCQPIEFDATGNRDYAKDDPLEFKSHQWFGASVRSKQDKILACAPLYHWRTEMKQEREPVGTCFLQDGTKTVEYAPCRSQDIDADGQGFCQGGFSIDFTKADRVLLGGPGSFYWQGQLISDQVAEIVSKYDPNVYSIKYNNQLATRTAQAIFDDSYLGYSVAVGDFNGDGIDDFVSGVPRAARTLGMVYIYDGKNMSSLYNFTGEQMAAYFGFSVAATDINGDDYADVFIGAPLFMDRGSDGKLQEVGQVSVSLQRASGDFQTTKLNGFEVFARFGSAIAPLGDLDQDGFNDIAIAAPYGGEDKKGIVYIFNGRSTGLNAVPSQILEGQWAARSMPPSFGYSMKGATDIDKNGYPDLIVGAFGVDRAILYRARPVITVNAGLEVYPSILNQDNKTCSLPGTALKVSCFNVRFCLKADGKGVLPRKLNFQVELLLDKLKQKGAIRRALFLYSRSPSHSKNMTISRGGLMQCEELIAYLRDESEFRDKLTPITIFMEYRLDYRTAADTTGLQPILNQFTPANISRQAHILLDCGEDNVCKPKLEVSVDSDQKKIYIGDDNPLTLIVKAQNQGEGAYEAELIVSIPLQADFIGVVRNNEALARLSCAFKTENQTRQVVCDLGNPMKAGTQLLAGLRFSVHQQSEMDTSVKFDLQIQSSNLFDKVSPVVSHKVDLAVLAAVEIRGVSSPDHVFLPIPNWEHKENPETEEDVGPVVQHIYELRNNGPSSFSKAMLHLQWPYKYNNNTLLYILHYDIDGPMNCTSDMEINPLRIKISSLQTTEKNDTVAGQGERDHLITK
Chain of Integrin alpha-V/beta-3 (P06756 891-1048 limits assumed): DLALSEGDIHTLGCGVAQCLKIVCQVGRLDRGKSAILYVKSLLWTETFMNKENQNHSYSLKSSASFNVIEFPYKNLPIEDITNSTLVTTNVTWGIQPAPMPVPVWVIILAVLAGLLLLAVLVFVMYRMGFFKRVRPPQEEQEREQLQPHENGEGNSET

Chain of Integrin alpha-V/beta-5 (P06756 31-889 limits assumed): as the sequence (P06756 31-889 limits assumed) above
Chain of Integrin alpha-V/beta-5 (P06756 891-1048 limits assumed): as the sequence (P06756 891-1048 limits assumed) above
Chain of Integrin alpha-V/beta-5 (P18084 24-799 limits assumed): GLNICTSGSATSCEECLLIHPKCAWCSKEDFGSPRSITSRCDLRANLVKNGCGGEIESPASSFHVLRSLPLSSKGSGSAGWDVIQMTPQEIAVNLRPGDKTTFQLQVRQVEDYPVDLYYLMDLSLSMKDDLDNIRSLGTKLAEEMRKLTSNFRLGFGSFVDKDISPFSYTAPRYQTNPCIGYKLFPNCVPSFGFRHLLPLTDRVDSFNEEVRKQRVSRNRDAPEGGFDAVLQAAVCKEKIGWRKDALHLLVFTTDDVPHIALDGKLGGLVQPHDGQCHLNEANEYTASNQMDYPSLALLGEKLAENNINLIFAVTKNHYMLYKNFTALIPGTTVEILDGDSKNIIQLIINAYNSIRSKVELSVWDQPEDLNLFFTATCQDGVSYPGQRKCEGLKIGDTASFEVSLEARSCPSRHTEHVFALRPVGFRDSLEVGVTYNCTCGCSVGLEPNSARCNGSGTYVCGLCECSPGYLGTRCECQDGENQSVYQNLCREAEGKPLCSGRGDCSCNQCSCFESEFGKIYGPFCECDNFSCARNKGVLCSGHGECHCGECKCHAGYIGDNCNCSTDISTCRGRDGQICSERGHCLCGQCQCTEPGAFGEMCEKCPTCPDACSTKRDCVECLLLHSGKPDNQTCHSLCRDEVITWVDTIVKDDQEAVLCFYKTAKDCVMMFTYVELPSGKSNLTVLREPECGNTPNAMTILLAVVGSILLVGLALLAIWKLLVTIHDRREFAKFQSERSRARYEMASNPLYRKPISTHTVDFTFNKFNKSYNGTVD

IC50 (Integrin alpha-V/beta-5) [nM]	IC50 (Integrin alpha-V/beta-3) [nM]	Compound
14.3	34.4	N=C(N)NCCC[C@@H]1NC(=O)[C@@]23CCCN2C(=O)[C@H](C3)NC(=O)[C@H](CC(=O)O)NC(=O)CNC1=O
7960	2150	NC(N)=NCCC[C@@H]1NC(=O)[C@]23CCCN2C(=O)[C@@H](C3)NC(=O)[C@H](CC(=O)O)NC(=O)CNC1=O
